Where two headings read alike, the source gives them in different places.
What was measured:
[1] = system: Human T-lymphoblastic leukemia cell line CEM; test: In vitro cytotoxicity, Calcein AM assay; details: read-out: GI50 CEM
Protocol: (§1) Because only metabolically active cells cleave Calcein AM, these assays detect viable cells exclusively. The quantity of reduced Calcein AM corresponds to the number of vital cells in the culture.
(§2) The cells were maintained in Nunc/Corning 80 cm^2 plastic tissue culture flasks and cultured in cell culture medium (DMEM with 5 g/l glucose, 2 mM glutamine, 100 U/ml penicillin, 100 mg/ml streptomycin, 10% fetal calf serum and sodium bicarbonate).
(§3) The cell suspensions that were prepared and diluted according to the particular cell type and the expected target cell density (2,500-30,000 cells per well based on cell growth characteristics) were added by pipette (80 ml) into 96-well microtiter plates. Inoculates were allowed a pre-incubation period of 24 hours at 37° C. and 5% CO2 for stabilization. Four-fold dilutions of the intended test concentration were added at time zero in 20 ml aliquots to the microtiter plate wells. Usually, the compound tested was evaluated at six 4-fold dilutions. […] All drug concentrations were examined in duplicate. Incubations of cells with the tested compounds lasted for 72 hours at 37° C., in a 5% CO2 atmosphere and 100% humidity. At the end of the incubation period, the cells were assayed by using Calcein AM. Ten microliters of the stock solution were pipetted into each well and incubated for 1 hour. Fluorescence (FD) was measured with the Labsystem FIA Reader Fluoroscan Ascent (UK).

[2] = system: human diploid fibroblasts (HCA cells, HCA20, HCA40, HCA60); test: Senescent cells (β-galactosidase staining) in culture of human fibroblasts; format: cell-based; details: for SENESCENT CELLS (%) HCA20: human fibroblasts passage 20 (HCA20); for SENESCENT CELLS (%) HCA40: human fibroblasts passage 40 (HCA40); for SENESCENT CELLS (%) HCA60: human fibroblasts passage 60 (HCA60)
How it was run: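 Fibroblasts taken at passages 20, 40 and 60 were washed and fixed for 5 min at room temperature in 2% formaldehyde/0.2% glutaraldehyde in PBS. After PBS washes, cells were incubated at 37 °C for β-galactosidase staining.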

[3] = system: Amaranthus caudatus cotyledon/hypocotyl explants; test: Amaranthus bioassay (betacyanin content); design: species or system Amaranthus caudatus var. atropurpurea; details: for concentration with highest activity: betacyanin content after 48 h incubation, tested 10^−8 M to 10^−4 M; for Activity (%) [10^−5 mol · l^−1 BAP = 100%]: betacyanin content at the concentration with highest activity, 10^−5 M BAP = 100%
How it was run: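 Amaranthus caudatus explants (cotyledons plus hypocotyl) from 72 h dark-grown seedlings were incubated in darkness on medium with 10 mmol Na2HPO4–KH2PO4 pH 6.8, 5 mmol tyrosine and test compound; stock was 10^−3 M in DMSO/water. Betacyanin was measured as A537−A620 and activity expressed relative to 10^−5 M BAP (100%).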

[4] = system: cytokinin-dependent tobacco callus Nicotiana tabacum L. cv. Wisconsin 38; test: Cytokinin activity in tobacco callus bioassay; format: cell-based; details: for concentration with highest activity: growth of tobacco callus, four weeks of cultivation, tested 10^−8 M to 10^−4 M; for Activity (%) [10^−5 mol · l^−1 BAP = 100%]: increase of fresh callus weight at the concentration with highest activity, 10^−5 M BAP = 100%
excised wheat leaf tips = test: Antisenescence test, retention of chlorophyll in excised wheat leaf tips; design: species or system Triticum aestivum cv. Hereward; details: for activity (%) [10^−4 mol · l^−1 BAP = 100%]: retention of chlorophyll in excised wheat leaf tips at the concentration with highest activity, 10 replicate determinations; for concentration with highest activity: retention of chlorophyll in excised wheat leaf tips, tested range 10^−8 M to 10^−4 M, 96 h in the dark at 25° C.
How it was run: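 Winter wheat seedlings (Triticum aestivum cv. Hereward) were raised on vermiculite with Knop's solution at 25° C. for 7 days. Tips of the first leaf, 35 mm long (five tips, 100 mg combined), stood in […] of test solution in microtiter wells. After 96 h in the dark at 25° C., chlorophyll was extracted in 80% ethanol at 80° C. and read at 665 nm. Activity is relative to 10^−4 M BAP (100%).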

[5] = system: breast carcinoma cell line MCF-7; test: In vitro cytotoxicity, Calcein AM assay; details: read-out: GI50 MCF7
Protocol: as §1, §2, §3

mouse fibroblasts NIH3T3 = test: In vitro cytotoxicity, Calcein AM assay; details: read-out: GI50 NIH-3T3
Protocol: as §1, §2, §3

[6] = system: promyelocytic HL-60 leukemia; test: In vitro cytotoxicity, Calcein AM assay; details: read-out: GI50 HL60
human osteosarcoma HOS = test: In vitro cytotoxicity, Calcein AM assay; details: read-out: GI50 HOS
Protocol: as §1, §2, §3

[7] = system: human myeloid leukemia K-562; test: In vitro cytotoxicity, Calcein AM assay; details: read-out: GI50 K-562
Protocol: as §1, §2, §3

Row | Structure (SMILES) | GI50 ([1]; CEM, 72 hours, Calcein AM) | concentration with highest activity [3] | Activity (%) [10^−5 mol · l^−1 BAP = 100%] [3] | concentration with highest activity [4] | Activity (%) [10^−5 mol · l^−1 BAP = 100%] [4] | activity (%) [10^−4 mol · l^−1 BAP = 100%] (excised wheat leaf tips) | concentration with highest activity (excised wheat leaf tips) | GI50 ([5]; MCF7, 72 hours, Calcein AM) | GI50 (mouse fibroblasts NIH3T3; NIH-3T3, 72 hours, Calcein AM) | GI50 ([6]; HL60, 72 hours, Calcein AM) | GI50 (human osteosarcoma HOS; HOS, 72 hours, Calcein AM) | GI50 ([5]; Homo sapiens, MCF7, 72 h) | GI50 (mouse fibroblasts NIH3T3; Mus musculus, NIH3T3, 72 h) | GI50 ([6]; Homo sapiens, HL-60, 72 h) | GI50 (human osteosarcoma HOS; Homo sapiens, 72 h) | GI50 ([1]; Homo sapiens, 72 h) | also measured
1 | Cc1cc(CNc2ncnc3c2ncn3C2CCCCO2)ccc1O (stereo not shown) [4-hydroxy-5-methylbenzylamino / tetrahydropyran-2-yl] | > 167 µM | 10^−4 mol · l^−1 | 5% | 10^−5 mol · l^−1 | 6% | 3% | 10^−4 mol · l^−1 | > 167 µM | > 1670 µM | > 1670 µM | > 167 µM | – | – | – | – | – | SENESCENT CELLS (%) HCA20 [2]: 3%; SENESCENT CELLS (%) HCA40 [2]: 4%; SENESCENT CELLS (%) HCA60 [2]: 20%
2 | Oc1ccc(CNc2ncnc3c2ncn3C2CCCO2)cc1 (stereo not shown) [6-(4-hydroxybenzylamino)-9-(tetrahydrofuran-2-yl)-purine] | – | 10^−4 mol · l^−1 | 13% | 10^−5 mol · l^−1 | 27% | 3% | 10^−4 mol · l^−1 | – | – | – | – | > 167 µM | > 167 µM | > 167 µM | > 167 µM | – | SENESCENT CELLS (%) HCA20 [2]: 5%; SENESCENT CELLS (%) HCA40 [2]: 5%; SENESCENT CELLS (%) HCA60 [2]: 16%
3 | C/C(=C\CNc1ncnc2nc[nH]c12)CO [6-((E)-4-hydroxy-3-methylbut-2-enylamino)purine, reference compound] | – | – | 116% | – | 86.9% | 28.3% | – | – | – | – | – | > 167 µM | > 167 µM | > 167 µM | > 167 µM | > 167 µM | –
4 | C/C(=C\CNc1ncnc2c1ncn2C1CCCCO1)CO (stereo not shown) [6-(E)-(4-hydroxy-3-methylbut-2-en-1-ylamino)-9-(tetrahydropyran-2-yl)purine] | – | 10^−4 mol · l^−1 | 299.4% | 10^−5 mol · l^−1 | 96.5% | 38.2% | 10^−4 mol · l^−1 | – | – | – | – | > 167 µM | > 167 µM | > 167 µM | > 167 µM | > 167 µM | –
5 | c1ccc(CNc2ncnc3nc[nH]c23)cc1 [benzylamino / H, 6-benzylaminopurine, reference compound] | – | 10^−5 mol · l^−1 | 100% | 10^−6 mol · l^−1 | 100% | 100% | 10^−4 mol · l^−1 | – | – | – | – | 166 µM | > 167 µM | > 167 µM | > 167 µM | > 167 µM | GI50 ([7]; Homo sapiens, K562, 72 h): 139 µM
6 | c1coc(CNc2ncnc3[nH]cnc23)c1 [furfurylamino / H, reference compound] | 155 µM | – | – | – | – | – | – | > 167 µM | > 167 µM | 149 µM | > 167 µM | – | – | – | – | – | GI50 ([7]; K-562, 72 hours, Calcein AM): 164 µM
7 | CC(C)=CCNc1ncnc2nc[nH]c12 [isopentenylamino / H] | 92.2 µM | – | – | – | – | – | – | > 167 µM | > 167 µM | > 167 µM | > 167 µM | – | – | – | – | – | GI50 ([7]; K-562, 72 hours, Calcein AM): 147 µM
